Data taken from patent EP0565377B1, “Therapeutic agents for use in the treatment of Parkinson's Disease” (Kyowa Hakko Kogyo Co., Ltd., priority 1992, dated 1993).

tested on: Haloperidol-Induced Catalepsy; test: Effect on haloperidol-induced catalepsy; assay type: in vivo, male ddY mice; conditions: Mus musculus, po, 1 h; Table 4-1; test compound 10 mg/kg orally; rate of decrease in total score based on control group; read-out: Remission Rate (%)
Procedure: The experiment was performed by using several groups of 5-weeks-old male ddY mice (weighing 22 to 24 g, Japan SLC), each group consisting of 5 mice. Haloperidol (Janssen Pharmaceutica) suspended in 0.3% CMC was intraperitoneally administered to each mouse at a dose of 1.0 mg/kg. Test compounds were suspended in 0.3% CMC or in injectable distilled water (Otsuka Pharmaceutical Co., Ltd.) containing Tween 80. L-DOPA (Kyowa Hakko Kogyo Co., Ltd.) and benserazide hydrochloride (Kyowa Hakko Kogyo Co., Ltd.) were suspended in 0.3% CMC. One hour after the haloperidol administration, the test compound suspensions and the control suspension [0.3% CMC or injectable distilled water (Otsuka Pharmaceutical Co., Ltd.) containing Tween 80] containing no test compound were orally administered to separate groups of the mice (0.1 ml per 10 g of body weight). One hour after the administration of the test compound, the forelimbs of each mouse and subsequently the hindlimbs of the same mouse were placed on a 4.5 cm-high, 1.0 cm-wide bar and catalepsy was estimated. All of the test compounds were orally administered at a dose of 10 mg/kg, and L-DOPA (100 mg/kg) and benserazide (25 mg/kg) were intraperitoneally administered together as a control experiment. The catalepsy score and the standard of judgment are shown below.
The effect of the compounds was evaluated by the total of the catalepsy scores of five mice in each group (25 points at the full). The groups wherein the total score was not more than 20 points were estimated to be effective. The number of the animals showing remission against catalepsy is the number of the mice for which the catalepsy score was not more than 4 points.

SMILES	inhibition in vivo at 10 mg/kg [%]
CCCn1c(=O)c2c(nc(/C=C/c3cc(OC)c(OC)c(OC)c3)n2C)n(CCC)c1=O [Compound 5, (E)-7-methyl-1,3-dipropyl-8-(3,4,5-trimethoxystyryl)xanthine]	28

same assay, conditions: Table 4-1; test compound 10 mg/kg orally; of 5 mice, catalepsy score not more than 4 points

SMILES	Number of the Animals Showing Remission
CCCn1c(=O)c2c(nc(/C=C/c3cc(OC)c(OC)c(OC)c3)n2C)n(CCC)c1=O [Compound 5, (E)-7-methyl-1,3-dipropyl-8-(3,4,5-trimethoxystyryl)xanthine]	4

same assay, conditions: Table 4-1; test compound 10 mg/kg orally; total catalepsy score of 5 mice (25 points at the full); 0.3% CMC control 25

SMILES	Total Score [points]
CCCn1c(=O)c2c(nc(/C=C/c3cc(OC)c(OC)c(OC)c3)n2C)n(CCC)c1=O [Compound 5, (E)-7-methyl-1,3-dipropyl-8-(3,4,5-trimethoxystyryl)xanthine]	18

tested on: dd-strain male mice; test: Acute toxicity test (minimum lethal dose, oral); assay type: in vivo; conditions: oral administration, mortality seven days after administration, three mice per group
Procedure: Test compounds were orally administered to groups of dd-strain male mice weighing 20±1 g, each group consisting of three mice. Seven days after the administration, minimum lethal dose (MLD) of each compound was determined by observing the mortality.

SMILES	MLD [mg/kg]
CCCn1c(=O)c2c(nc(/C=C/c3cc(OC)c(OC)c(OC)c3)n2C)n(CCC)c1=O [Compound 5, (E)-7-methyl-1,3-dipropyl-8-(3,4,5-trimethoxystyryl)xanthine]	> 300
CCCn1c(=O)c2[nH]c(/C=C/c3ccc(OC)c(C)c3C)nc2n(CCC)c1=O [Compound 12, (E)-8-(4-methoxy-2,3-dimethylstyryl)-1,3-dipropylxanthine]	> 300
CCCn1c(=O)c2[nH]c(/C=C/c3ccc(OC)c(C)c3OC)nc2n(CCC)c1=O [Compound 14, (E)-8-(2,4-dimethoxy-3-methylstyryl)-1,3-dipropylxanthine]	> 100
CCCn1c(=O)c2c(nc(/C=C/c3ccc4c(c3)OCCO4)n2C)n(CCC)c1=O [Compound 17, (E)-8-[2-(1,4-benzodioxan-6-yl)vinyl]-7-methyl-1,3-dipropylxanthine]	> 300
CCCn1c(=O)c2c(nc(/C=C/c3ccc(OC)c(OC)c3OC)n2C)n(CCC)c1=O [Compound 21, (E)-7-methyl-1,3-dipropyl-8-(2,3,4-trimethoxystyryl)xanthine]	> 300
CCCn1c(=O)c2nc(/C=C/c3cc(OC)c(OC)cc3OC)[nH]c2n(CCC)c1=O [Compound 22, (E)-1,3-dipropyl-8-(2,4,5-trimethoxystyryl)-xanthine]	> 300
CCCn1c(=O)c2[nH]c(/C=C/c3cc(OC)c(OCc4ccccc4)c(OC)c3)nc2n(CCC)c1=O [Compound 26, (E)-8-(4-benzyloxy-3,5-dimethoxystyryl)-1,3-dipropylxanthine]	> 100
CCCn1c(=O)c2c(nc(/C=C/c3cc(OC)c(OCc4ccccc4)c(OC)c3)n2C)n(CCC)c1=O [Compound 27, (E)-8-(4-benzyloxy-3,5-dimethoxystyryl)-7-methyl-1,3-dipropylxanthine]	> 100
CCCn1c(=O)c2[nH]c(/C=C/c3cccc(OC)c3OC)nc2n(CCC)c1=O [Compound 28, (E)-8-(2,3-dimethoxystyryl)-1,3-dipropylxanthine]	> 100
CCCn1c(=O)c2c(nc(/C=C/c3cccc(OC)c3OC)n2C)n(CCC)c1=O [Compound 29, (E)-8-(2,3-dimethoxystyryl)-7-methyl-1,3-dipropylxanthine]	> 300
CCCn1c(=O)c2[nH]c(/C=C/c3ccc(C)c(C)c3)nc2n(CCC)c1=O [Compound 30, (E)-8-(3,4-dimethylstyryl)-1,3-dipropylxanthine]	> 100
CCCn1c(=O)c2nc(/C=C/c3cc(OC)cc(OC)c3)[nH]c2n(CCC)c1=O [Compound 32, (E)-8-(3,5-dimethoxystyryl)-1,3-dipropylxanthine]	> 100
CCCn1c(=O)c2c(nc(/C=C/c3cc(OC)cc(OC)c3)n2C)n(CCC)c1=O [Compound 33, (E)-8-(3,5-dimethoxystyryl)-7-methyl-1,3-dipropylxanthine]	> 100
CCCn1c(=O)c2[nH]c(/C=C/c3cccc([N+](=O)[O-])c3)nc2n(CCC)c1=O [Compound 34, (E)-8-(3-nitrostyryl)-1,3-dipropylxanthine]	> 100
CCCn1c(=O)c2c(nc(/C=C/c3cccc([N+](=O)[O-])c3)n2C)n(CCC)c1=O [Compound 35, (E)-7-methyl-8-(3-nitrostyryl)-1,3-dipropylxanthine]	> 100
CCCn1c(=O)c2nc(/C=C/c3cccc(F)c3)[nH]c2n(CCC)c1=O [Compound 36, (E)-8-(3-fluorostyryl)-1,3-dipropylxanthine]	> 100
CCCn1c(=O)c2c(nc(/C=C/c3cccc(F)c3)n2C)n(CCC)c1=O [Compound 37, (E)-8-(3-fluorostyryl)-7-methyl-1,3-dipropylxanthine]	> 100
CCCn1c(=O)c2nc(/C=C/c3cccc(Cl)c3)[nH]c2n(CCC)c1=O [Compound 38, (E)-8-(3-chlorostyryl)-1,3-dipropylxanthine]	> 100
CCCn1c(=O)c2c(nc(/C=C/c3cccc(Cl)c3)n2C)n(CCC)c1=O [Compound 39, (E)-8-(3-chlorostyryl)-7-methyl-1,3-dipropylxanthine]	> 100
CCCn1c(=O)c2[nH]c(/C=C/c3ccccc3Cl)nc2n(CCC)c1=O [Compound 40, (E)-8-(2-chlorostyryl)-1,3-dipropylxanthine]	> 100

SMILES	MLD [mg/kg]
CCCn1c(=O)c2c(nc(/C=C/c3ccccc3Cl)n2C)n(CCC)c1=O [Compound 41, (E)-8-(2-chlorostyryl)-7-methyl-1,3-dipropylxanthine]	> 100
CCCn1c(=O)c2[nH]c(/C=C/c3ccccc3F)nc2n(CCC)c1=O [Compound 42, (E)-8-(2-fluorostyryl)-1,3-dipropylxanthine]	> 100
CCCn1c(=O)c2c(nc(/C=C/c3ccccc3F)n2C)n(CCC)c1=O [Compound 43, (E)-8-(2-fluorostyryl)-7-methyl-1,3-dipropylxanthine]	> 100
CCCn1c(=O)c2[nH]c(/C=C/c3cc(C)c(OC)cc3C)nc2n(CCC)c1=O [Compound 44, (E)-8-(4-methoxy-2,5-dimethylstyryl)-1,3-dipropylxanthine]	> 300
CCCn1c(=O)c2c(nc(/C=C/c3cc(C)c(OC)cc3C)n2C)n(CCC)c1=O [Compound 45, (E)-8-(4-methoxy-2,5-dimethylstyryl)-7-methyl-1,3-dipropylxanthine]	> 300
CCCn1c(=O)c2c(nc(/C=C\c3ccc(OC)c(OC)c3)n2C)n(CCC)c1=O [Compound 46, (Z)-8-(3,4-dimethoxystyryl)-7-methyl-1,3-dipropylxanthine]	> 300
CCCn1c(=O)c2[nH]c(/C=C/c3ccc(OCC)cc3)nc2n(CCC)c1=O [Compound 47, (E)-8-(4-ethoxystyryl)-1,3-dipropylxanthine]	> 100
CCCOc1ccc(/C=C/c2nc3c([nH]2)c(=O)n(CCC)c(=O)n3CCC)cc1 [Compound 49, (E)-8-(4-propoxystyryl)-1,3-dipropylxanthine]	> 100
CCCCOc1ccc(/C=C/c2nc3c([nH]2)c(=O)n(CCC)c(=O)n3CCC)cc1 [Compound 51, (E)-8-(4-butoxystyryl)-1,3-dipropylxanthine]	> 100
CCCCOc1ccc(/C=C/c2nc3c(c(=O)n(CCC)c(=O)n3CCC)n2C)cc1 [Compound 52, (E)-8-(4-butoxystyryl)-7-methyl-1,3-dipropylxanthine]	> 100
CCCn1c(=O)c2c(nc(/C=C/c3ccc(OCC)c(OCC)c3)n2C)n(CCC)c1=O [Compound 54, (E)-8-(3,4-diethoxystyryl)-7-methyl-1,3-dipropylxanthine]	> 100
CCCn1c(=O)c2[nH]c(/C=C/c3ccc(OC)c(Br)c3)nc2n(CCC)c1=O [Compound 55, (E)-8-(3-bromo-4-methoxystyryl)-1,3-dipropylxanthine]	> 100
CCCn1c(=O)c2c(nc(/C=C/c3ccc(OC)c(Br)c3)n2C)n(CCC)c1=O [Compound 56, (E)-8-(3-bromo-4-methoxystyryl)-7-methyl-1,3-dipropylxanthine]	> 100
CCCn1c(=O)c2[nH]c(/C=C/c3cc(OC)c(OC)cc3Br)nc2n(CCC)c1=O [Compound 57, (E)-8-(2-bromo-4,5-dimethoxystyryl)-1,3-dipropylxanthine]	> 300
CCCn1c(=O)c2c(nc(/C=C/c3cc(OC)c(OC)cc3Br)n2C)n(CCC)c1=O [Compound 58, (E)-8-(2-bromo-4,5-dimethoxystyryl)-7-methyl-1,3-dipropylxanthine]	> 300
CCCn1c(=O)c2c(nc(/C=C/c3cc(Br)c(OC)c(OC)c3)n2C)n(CCC)c1=O [Compound 60, (E)-8-(3-bromo-4,5-dimethoxystyryl)-7-methyl-1,3-dipropylxanthine]	> 100
CCCn1c(=O)c2[nH]c(/C=C/c3ccc(OC)c4ccccc34)nc2n(CCC)c1=O [Compound 61, (E)-8-[2-(4-methoxynaphthyl)vinyl]-1,3-dipropylxanthine]	> 100
CCCn1c(=O)c2c(nc(/C=C/c3ccc(OC)c4ccccc34)n2C)n(CCC)c1=O [Compound 62, (E)-8-[2-(4-methoxynaphthyl)vinyl]-7-methyl-1,3-dipropylxanthine]	> 100
CCCn1c(=O)c2c(nc(/C=C/c3ccc(OC)c(O)c3)n2C)n(CCC)c1=O [Compound 63, (E)-8-(3-hydroxy-4-methoxystyryl)-7-methyl-1,3-dipropylxanthine]	> 100
